This is an account of results in publication PMC10790229 (Journal of medicinal chemistry, 2023).

What all share (format): cell-based
The test system of one series is HIV-1 IIIB. The series can be described thus: Anti-HIV-1 activity in MT-4 cells. Conditions: MT-4 cells; for SI IIIB (CC50/EC50): HIV-1 IIIB.
The subject of the next series is HIV-2 ROD. The series can be described thus: Anti-HIV-2 activity in MT-4 cells. Conditions: HIV-2 ROD; for EC50: read-out: EC50 ROD, 50% protection of MT-4 cells against HIV-induced cytotoxicity.
A further series deals with MT-4 cells. The series can be described thus: Cytotoxicity in uninfected MT-4 cells.

The term EC50 denotes the midpoint of the concentration-response curve. In general, CC50 refers to the concentration at which the toxic effect on the cells reaches its halfway point. High values mean better tolerance by the cells, low ones harm at low concentration. Consider `O=C(CN1CCN(S(=O)(=O)c2ccc([N+](=O)[O-])cc2)CC1=O)N[C@@H](Cc1ccccc1)c1nc2ccccc2c(=O)n1-c1ccc(S(=O)(=O)N2CCOCC2)cc1` [20a1, (S)-N-(1-(3-(4-(Morpholinosulfonyl)phenyl)-4-oxo-3,4-dihydroquinazolin-2-yl)-2-phenylethyl)-2-(4-((4-nitrophenyl)-sulfonyl)-2-oxopiperazin-1-yl)acetamide], for which, in the series on HIV-1 IIIB, the “SI IIIB (CC50/EC50)” value is listed as over 126.26 and the “Ratio IIIB(EC50)/ROD(EC50)” value is listed as 3.27. For the same molecule, the “SI ROD (CC50/EC50)” value in the series with HIV-2 ROD (MT-4 cells) is over 416.67. Besides, in the series on HIV-2 ROD, the EC50 stood at 370 ± 90 nM. The molecule further returned a CC50 in the series on MT-4 cells of over 153 µM.
The matching figures for “(S)-2-(4-((4-Aminophenyl)sulfonyl)-2-oxopiperazin-1-yl)-N-(1-(7-chloro-3-(4-methoxyphenyl)-4-oxo-3,4-dihydroquinazolin-2-yl)-2-phenylethyl)acetamide [12c1]”: over 290.70, 6.10, over 1736.11, 100 ± 20 nM and over 178 µM.
Regarding “(S)-2-(4-((4-Aminophenyl)sulfonyl)-2-oxopiperazin-1-yl)-N-(2-(3,5-difluorophenyl)-1-(3-(4-methoxyphenyl)-7-(methylsulfonyl)-4-oxo-3,4-dihydroquinazolin-2-yl)ethyl)acetamide [12e2]”, in the series with HIV-1 IIIB, the “SI IIIB (CC50/EC50)” value was over 235.85 and the “Ratio IIIB(EC50)/ROD(EC50)” value is recorded as 4.53. In the series with HIV-2 ROD (MT-4 cells), the “SI ROD (CC50/EC50)” value was over 1041.67. The EC50 with HIV-2 ROD was determined as 150 ± 30 nM. Further, the CC50 in the series with MT-4 cells was over 160 µM.
Turning to `COc1ccc(-n2c([C@H](Cc3ccccc3)NC(=O)CN3CCN(S(=O)(=O)c4ccc([N+](=O)[O-])cc4)CC3=O)nc3cc(Br)ccc3c2=O)cc1` [11d1, (S)-N-(1-(7-Bromo-3-(4-methoxyphenyl)-4-oxo-3,4-dihydroquinazolin-2-yl)-2-phenylethyl)-2-(4-((4-nitrophenyl)sulfonyl)-2-oxopiperazin-1-yl)acetamide], in the series with HIV-1 IIIB, the “SI IIIB (CC50/EC50)” value was over 67.20 and the “Ratio IIIB(EC50)/ROD(EC50)” value was 6.67. Besides, in the series on HIV-2 ROD (MT-4 cells), the “SI ROD (CC50/EC50)” value is on record as over 446.43. Also, the EC50 in the series on HIV-2 ROD is 360 ± 30 nM. The molecule also came in with a CC50 in the series on MT-4 cells of over 161 µM.
Regarding `COc1ccc(-n2c([C@H](Cc3ccccc3)NC(=O)CN3CCN(S(=O)(=O)c4ccc(N)cc4)CC3=O)nc3cc(F)ccc3c2=O)cc1` [12b1, (S)-2-(4-((4-Aminophenyl)sulfonyl)-2-oxopiperazin-1-yl)-N-(1-(7-fluoro-3-(4-methoxyphenyl)-4-oxo-3,4-dihydroquinazolin-2-yl)-2-phenylethyl)acetamide], in the series with HIV-1 IIIB, the “SI IIIB (CC50/EC50)” value is listed as over 223.21 and the “Ratio IIIB(EC50)/ROD(EC50)” value was 5.47. The “SI ROD (CC50/EC50)” value with HIV-2 ROD (MT-4 cells) is given as over 1250.00. In the series with HIV-2 ROD, the EC50 turned out to be 150 ± 30 nM. Also, the CC50 in the series on MT-4 cells is over 183 µM.
For the molecule `O=C(CN1CCN(S(=O)(=O)c2ccc([N+](=O)[O-])cc2)CC1=O)N[C@@H](Cc1ccccc1)c1nc2ccccc2c(=O)n1-c1ccc(S(=O)(=O)N2CCS(=O)(=O)CC2)cc1` [20b1, (S)-N-(1-(3-(4-((1,1-Dioxidothiomorpholino)sulfonyl)phenyl)-4-oxo-3,4-dihydroquinazolin-2-yl)-2-phenylethyl)-2-(4-((4-nitrophenyl)sulfonyl)-2-oxopiperazin-1-yl)acetamide], in the series with HIV-1 IIIB, the “SI IIIB (CC50/EC50)” value is over 11.47 and the “Ratio IIIB(EC50)/ROD(EC50)” value is 17.29. The “SI ROD (CC50/EC50)” value in the series with HIV-2 ROD (MT-4 cells) was over 198.41. Besides, in the series with HIV-2 ROD, the EC50 is 730 ± 160 nM. The molecule further returned a CC50 in the series with MT-4 cells of over 145 µM.
Turning to `COc1ccc(-n2c([C@H](Cc3cc(F)cc(F)c3)NC(=O)CN3CCN(S(=O)(=O)c4ccc([N+](=O)[O-])cc4)CC3=O)nc3ccccc3c2=O)cc1` [11a2, (S)-N-(2-(3,5-Difluorophenyl)-1-(3-(4-methoxyphenyl)-4-oxo-3,4-dihydroquinazolin-2-yl)ethyl)-2-(4-((4-nitrophenyl)sulfonyl)-2-oxopiperazin-1-yl)acetamide], in the series with HIV-1 IIIB, the “SI IIIB (CC50/EC50)” value is recorded as over 320.51 and the “Ratio IIIB(EC50)/ROD(EC50)” value was determined as 1.29. Moreover, the “SI ROD (CC50/EC50)” value with HIV-2 ROD (MT-4 cells) was over 416.67. For the same molecule, in the series with HIV-2 ROD, the EC50 came out at 410 ± 40 nM. In addition, the CC50 in the series with MT-4 cells was over 171 µM.
The matching figures for “(S)-N-(1-(7-Fluoro-3-(4-methoxyphenyl)-4-oxo-3,4-dihydroquinazolin-2-yl)-2-phenylethyl)-2-(4-((4-nitrophenyl)sulfonyl)-2-oxopiperazin-1-yl)acetamide [11b1]”: over 88.03, 3.55, over 312.50, 560 ± 140 nM and over 175 µM.
The matching figures for “(S)-2-(4-((4-Aminophenyl)sulfonyl)-2-oxopiperazin-1-yl)-N-(1-(3-(4-methoxyphenyl)-4-oxo-3,4-dihydroquinazolin-2-yl)-2-phenylethyl)acetamide [12a1]”: over 290.70, 4.27, over 1250.00, 150 ± 40 nM and over 187 µM.
Turning to `COc1ccc(-n2c([C@H](Cc3cc(F)cc(F)c3)NC(=O)CN3CCN(S(=O)(=O)c4ccc(N)cc4)CC3=O)nc3cc(Cl)ccc3c2=O)cc1` [12c2, (S)-2-(4-((4-Aminophenyl)sulfonyl)-2-oxopiperazin-1-yl)-N-(1-(7-chloro-3-(4-methoxyphenyl)-4-oxo-3,4-dihydroquinazolin-2-yl)-2-(3,5-difluorophenyl)ethyl)acetamide], in the series with HIV-1 IIIB, the “SI IIIB (CC50/EC50)” value is over 1250.00 and the “Ratio IIIB(EC50)/ROD(EC50)” value came out at 1.75. In addition, in the series with HIV-2 ROD (MT-4 cells), the “SI ROD (CC50/EC50)” value is over 2083.33 and the “fold improvement of anti-HIV-2 potency over PF74” value was 47 fold. Moreover, the EC50 in the series on HIV-2 ROD came out at 80 ± 10 nM. Further, in the series with MT-4 cells, the CC50 is over 170 µM.
For the molecule `O=C(CN1CCN(S(=O)(=O)c2ccc([N+](=O)[O-])cc2)CC1=O)N[C@@H](Cc1cc(F)cc(F)c1)c1nc2ccccc2c(=O)n1-c1ccc(S(=O)(=O)N2CCOCC2)cc1` [20a2, (S)-N-(2-(3,5-Difluorophenyl)-1-(3-(4-(morpholinosulfonyl)-phenyl)-4-oxo-3,4-dihydroquinazolin-2-yl)ethyl)-2-(4-((4-nitrophenyl)sulfonyl)-2-oxopiperazin-1-yl)acetamide], in the series with HIV-1 IIIB, the “SI IIIB (CC50/EC50)” value is listed as over 892.86 and the “Ratio IIIB(EC50)/ROD(EC50)” value amounted to 0.89. Also, in the series on HIV-2 ROD (MT-4 cells), the “SI ROD (CC50/EC50)” value is given as over 833.33. Moreover, in the series with HIV-2 ROD, the EC50 was 180 ± 50 nM. The molecule further returned a CC50 in the series on MT-4 cells of over 147 µM.
For `COc1ccc(-n2c([C@H](Cc3cc(F)cc(F)c3)NC(=O)CN3CCN(S(=O)(=O)c4ccc([N+](=O)[O-])cc4)CC3=O)nc3cc(S(C)(=O)=O)ccc3c2=O)cc1` [11e2, (S)-N-(2-(3,5-Difluorophenyl)-1-(3-(4-methoxyphenyl)-7-(methylsulfonyl)-4-oxo-3,4-dihydroquinazolin-2-yl)ethyl)-2-(4-((4-nitrophenyl)sulfonyl)-2-oxopiperazin-1-yl)acetamide] the same measures were over 83.89, 4.49, over 378.79, 410 ± 50 nM and over 154 µM.
`Nc1ccc(S(=O)(=O)N2CCN(CC(=O)N[C@@H](Cc3ccccc3)c3nc4ccccc4c(=O)n3-c3ccc(S(=O)(=O)N4CCS(=O)(=O)CC4)cc3)C(=O)C2)cc1` [21b1, (S)-2-(4-((4-Aminophenyl)sulfonyl)-2-oxopiperazin-1-yl)-N-(1-(3-(4-((1,1-dioxidothiomorpholino)sulfonyl)phenyl)-4-oxo-3,4-dihydroquinazolin-2-yl)-2-phenylethyl)acetamide]: in the series on HIV-1 IIIB, the “SI IIIB (CC50/EC50)” value was over 75.76 and the “Ratio IIIB(EC50)/ROD(EC50)” value is given as 3.67. In addition, the “SI ROD (CC50/EC50)” value with HIV-2 ROD (MT-4 cells) is on record as over 277.78. Besides, in the series with HIV-2 ROD, the EC50 stood at 540 ± 130 nM. The same molecule registered a CC50 in the series with MT-4 cells of over 150 µM.
`COc1ccc(-n2c([C@H](Cc3ccccc3)NC(=O)CN3CCN(S(=O)(=O)c4ccc([N+](=O)[O-])cc4)CC3=O)nc3cc(Cl)ccc3c2=O)cc1` [11c1, (S)-N-(1-(7-Chloro-3-(4-methoxyphenyl)-4-oxo-3,4-dihydroquinazolin-2-yl)-2-phenylethyl)-2-(4-((4-nitrophenyl)sulfonyl)-2-oxopiperazin-1-yl)acetamide]: in the series on HIV-1 IIIB, the “SI IIIB (CC50/EC50)” value is over 79.11 and the “Ratio IIIB(EC50)/ROD(EC50)” value is listed as 5.14. The “SI ROD (CC50/EC50)” value in the series on HIV-2 ROD (MT-4 cells) is given as over 403.23. Also, the EC50 in the series on HIV-2 ROD stood at 420 ± 40 nM. In the series with MT-4 cells, this molecule came in with a CC50 of over 171 µM.
On to `COc1ccc(-n2c([C@H](Cc3cc(F)cc(F)c3)NC(=O)CN3CCN(S(=O)(=O)c4ccc([N+](=O)[O-])cc4)CC3=O)nc3cc(Br)ccc3c2=O)cc1` [11d2, (S)-N-(1-(7-Bromo-3-(4-methoxyphenyl)-4-oxo-3,4-dihydroquinazolin-2-yl)-2-(3,5-difluorophenyl)ethyl)-2-(4-((4-nitrophenyl)sulfonyl)-2-oxopiperazin-1-yl)acetamide], for which, in the series on HIV-1 IIIB, the “SI IIIB (CC50/EC50)” value is recorded as over 156.25 and the “Ratio IIIB(EC50)/ROD(EC50)” value was 1.68. Further, the “SI ROD (CC50/EC50)” value in the series with HIV-2 ROD (MT-4 cells) is listed as over 260.42. For the same molecule, in the series on HIV-2 ROD, the EC50 was 590 ± 200 nM. This molecule returned a CC50 in the series with MT-4 cells of over 154 µM.
In the case of “(S)-N-(2-(3,5-Difluorophenyl)-1-(7-fluoro-3-(4-methoxyphenyl)-4-oxo-3,4-dihydroquinazolin-2-yl)ethyl)-2-(4-((4-nitrophenyl)sulfonyl)-2-oxopiperazin-1-yl)acetamide [11b2]”, in the series with HIV-1 IIIB, the “SI IIIB (CC50/EC50)” value is on record as over 337.84 and the “Ratio IIIB(EC50)/ROD(EC50)” value is recorded as 1.40. Further, in the series with HIV-2 ROD (MT-4 cells), the “SI ROD (CC50/EC50)” value was over 480.77. In addition, in the series on HIV-2 ROD, the EC50 came to 350 ± 30 nM. The same molecule showed a CC50 with MT-4 cells of over 167 µM.
In the case of `COc1ccc(-n2c([C@H](Cc3ccccc3)NC(=O)CN3CCN(S(=O)(=O)c4ccc([N+](=O)[O-])cc4)CC3=O)nc3ccccc3c2=O)cc1` [11a1, (S)-N-(1-(3-(4-Methoxyphenyl)-4-oxo-3,4-dihydroquinazolin-2-yl)-2-phenylethyl)-2-(4-((4-nitrophenyl)sulfonyl)-2-oxopiperazin-1-yl)acetamide], in the series with HIV-1 IIIB, the “SI IIIB (CC50/EC50)” value was over 119.05. Further, the “SI ROD (CC50/EC50)” value in the series on HIV-2 ROD (MT-4 cells) is over 312.50.
